In ChEMBL document CHEMBL5052848, “Atf6 modulators and uses thereof” (2021):

Columns and labels:
Type in all cases: cell-based
U2OS [1] = assay: Modulation of ATF6 activity in human U2OS cells at 10 uM in presence of ER stress inducer thapsigargin (Tg) measured by TRE-luciferase reporter assay relative to control
U2OS [2] = assay: Modulation of ATF6 activity in human U2OS cells at 1 uM in presence of ER stress inducer thapsigargin (Tg) measured by TRE-luciferase reporter assay relative to control
U2OS [3] = assay: Modulation of ATF6 activity in human U2OS cells at 1 uM measured by TRE-luciferase reporter assay relative to control
U2OS [4] = assay: Modulation of ATF6 activity in human U2OS cells at 10 uM measured by TRE-luciferase reporter assay relative to control

`CC(c1c(Cl)cccc1Cl)n1cc(NC(=O)c2cc(-c3ccco3)on2)cn1` (single isomer, unassigned) showed an Activity (U2OS [1]; filed as activator) of 100% and an Activity (U2OS [2]; filed as activator) of 125%.
Work on `CC(c1ccc(C(F)(F)F)cc1C(F)(F)F)n1cc(NC(=O)c2cc(-c3cnccn3)no2)cn1` (stereo in doubt; 1-25) yielded an Activity (U2OS [1]) of 75% and an Activity (U2OS [2]) of 75%.
For `CC(c1ccc(F)cc1F)n1cc(NC(=O)c2cc(-c3ccco3)on2)cn1` (stereo in doubt; 1-16), the Activity (U2OS [1]; filed as activator) was 125%, the Activity (U2OS [2]; filed as activator) was 100% and the Activity (U2OS [3]) was 0%. The Activity (U2OS [4]) was 0%.
Compound `CC(c1c(Cl)cccc1Cl)n1cc(NC(=O)c2cc(-c3cccs3)on2)cn1` (stereo unspecified) has an Activity (U2OS [1]; filed as activator) of 100%, an Activity (U2OS [2]) of 75% and an Activity (U2OS [3]) of 0%. The Activity (U2OS [4]) was 0%.
`CC(c1ccc(F)cc1Cl)n1cc(NC(=O)c2cc(-c3ccco3)on2)cn1` (stereo unspecified) gave an Activity (U2OS [1]) of 75% and an Activity (U2OS [2]; filed as activator) of 100%.
For `CC(c1ccc(F)cc1F)n1cc(NC(=O)c2cc(-c3ccco3)on2)cn1` (stereo in doubt; 1-17), the Activity (U2OS [1]; filed as activator) was 100%, the Activity (U2OS [2]; filed as activator) was 100% and the Activity (U2OS [3]) was 0%. For the same compound, the Activity (U2OS [4]) was 0%.
Compound `O=C(Nc1cnn(C2CCCc3ccccc32)c1)c1cc(-c2ccco2)on1` (stereo unspecified) has an Activity (U2OS [1]; filed as activator) of 125% and an Activity (U2OS [2]; filed as activator) of 100%.
In the case of `O=C(Nc1cnn(Cc2ccccc2)c1)c1cc(-c2ccco2)on1`, the Activity (U2OS [1]; filed as activator) is reported as 125% and the Activity (U2OS [2]; filed as activator) is reported as 100%.
With `CC(c1ccc(F)cc1F)n1cc(NC(=O)c2cc(-c3ccco3)on2)cn1` (stereo in doubt; 1-5) the Activity (U2OS [1]; filed as activator) was > 150% and the Activity (U2OS [2]; filed as activator) was 100%.
`CC(c1c(F)cccc1Cl)n1cc(NC(=O)c2cc(-c3ccco3)on2)cn1` (stereo in doubt; 1-15) showed an Activity (U2OS [1]; filed as activator) of 100%, an Activity (U2OS [2]; filed as activator) of 100% and an Activity (U2OS [3]) of 0%. It also gave an Activity (U2OS [4]) of 0%.
With `CC(c1c(F)cccc1Cl)n1cc(NC(=O)c2cc(-c3ccco3)on2)cn1` (stereo in doubt; 1-14) the Activity (U2OS [1]; filed as activator) was > 150%, the Activity (U2OS [2]; filed as activator) was > 150% and the Activity (U2OS [3]) was 0%. It also gave an Activity (U2OS [4]) of 0%.
Work on `Cc1c(NC(=O)c2cc(-c3ccco3)on2)cnn1C(C)c1c(F)cccc1Cl` (stereo unspecified) yielded an Activity (U2OS [1]; filed as activator) of 100%, an Activity (U2OS [2]) of 75% and an Activity (U2OS [3]) of 0%. For the same compound, the Activity (U2OS [4]) was 0%.
`CC(c1ccc(C(F)(F)F)cc1C(F)(F)F)n1cc(NC(=O)c2cc(-c3cnccn3)no2)cn1` (stereo in doubt; 1-11) was tested, and the Activity (U2OS [1]) was < 50% and the Activity (U2OS [2]) was 50%.
In the case of `O=C(Nc1cnn(C2CCc3cc(Cl)ccc32)c1)c1cc(-c2ccco2)on1` (single isomer, unassigned; enantiomer A), the Activity (U2OS [1]) is reported as < 50% and the Activity (U2OS [2]) is reported as 75%.
`CC(c1c(Cl)cccc1Cl)n1cc(NC(=O)c2cc(-c3ccco3)on2)cn1` (stereo unspecified) was tested, and the Activity (U2OS [1]; filed as activator) was > 150%, the Activity (U2OS [2]; filed as activator) was > 150% and the Activity (U2OS [3]) was 0%. For the same compound, the Activity (U2OS [4]) was 0%.
With `CC(c1ccc(C(F)(F)F)cc1C(F)(F)F)n1cc(NC(=O)c2cc(-c3cnccn3)no2)cn1` (stereo in doubt; 1-26) the Activity (U2OS [1]) was < 50% and the Activity (U2OS [2]) was < 50%.
For `CC(c1c(F)cccc1Cl)n1cc(NC(=O)c2cc(-c3ccco3)on2)cn1` (stereo in doubt; 1-4), the Activity (U2OS [1]; filed as activator) was > 150% and the Activity (U2OS [2]; filed as activator) was > 150%.
For `O=C(Nc1cnn(C2CCc3cc(Cl)ccc32)c1)c1cc(-c2ccco2)on1` (single isomer, unassigned; enantiomer B), the Activity (U2OS [1]) was 75% and the Activity (U2OS [2]) was 75%.
With `O=C(Nc1cnn(C2CCc3cc(C(F)(F)F)ccc32)c1)c1cc(-c2cnccn2)on1` (stereo unspecified) the Activity (U2OS [1]) was 75% and the Activity (U2OS [2]) was 75%.
`O=C(Nc1cnn(Cc2ccc(C(F)(F)F)cc2C(F)(F)F)c1)c1cc(-c2ccco2)on1` was tested, and the Activity (U2OS [1]) was < 50% and the Activity (U2OS [2]) was < 50%.
In the case of `O=C(Nc1cnn(Cc2ccc(C(F)(F)F)cc2)c1)c1cc(-c2ccco2)on1`, the Activity (U2OS [1]) is reported as 75% and the Activity (U2OS [2]; filed as activator) is reported as 100%.
